This is an account of results in PMC6576746, “Rational discovery of dual-indication multi-target PDE/Kinase inhibitor for precision anti-cancer therapy using structural systems pharmacology” (PLoS Computational Biology, 2019).

Test in all cases: biochemical
Design in all cases: DiscoverX KinomeScan competition binding assay across human kinases; per cent of control at 10 and 100 uM

The target of one assay is T1, PCTK3 (Homo sapiens, UniProt Q07002).
T1 construct: gene CDK18
To be noted: competition binding, % of control; read-out: Percent Control (100 uM Levosimendan). A digest of the protocol:
(§1)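 Binding is expressed as %control, normalised between positive and negative control signals. The compound (levosimendan) was tested at 10 μM and 100 μM in the DiscoverX KinomeScan competition binding format against human kinases.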

The target in a further assay is RET(V804M) (Homo sapiens, UniProt P07949, V804M). The settings on record: competition binding, % of control; read-out: Percent Control (100 uM Levosimendan). A digest of the protocol: as §1
The target of the next assay is T2, PFTK1 (Homo sapiens, UniProt O94921).
T2 construct: gene CDK14
The settings on record: competition binding, % of control; read-out: Percent Control (100 uM Levosimendan). A digest of the protocol:
as §1

The target in the next assay is SLK (Homo sapiens, UniProt Q9H2G2). To be noted: competition binding, % of control; read-out: Percent Control (100 uM Levosimendan). A digest of the protocol: as §1
Assay [1] addresses T3, ABL1(H396P)-nonphosphorylated (Homo sapiens, UniProt P00519, H396P).
T3 construct: nonphosphorylated
The settings on record: competition binding, % of control; read-out: Percent Control (100 uM Levosimendan). A digest of the protocol: as §1

In another assay the target is T4, S6K1 (Homo sapiens, UniProt P23443).
T4 construct: gene RPS6KB1
To be noted: competition binding, % of control. A digest of the protocol:
as §1

Another assay deals with CHEK1 (Homo sapiens, UniProt O14757). The settings on record: competition binding, % of control; read-out: Percent Control (100 uM Levosimendan). A digest of the protocol:
as §1

In another assay the target is MARK4 (Homo sapiens, UniProt Q96L34). The settings on record: competition binding, % of control; read-out: Percent Control (100 uM Levosimendan). A digest of the protocol:
as §1

In a further assay the target is T5, ADCK4 (Homo sapiens, UniProt Q96D53).
T5 construct: gene COQ8B
The settings on record: competition binding, % of control; read-out: Percent Control (100 uM Levosimendan). A digest of the protocol:
as §1

For a further assay, the target named is PLK1 (Homo sapiens, UniProt P53350). To be noted: competition binding, % of control; read-out: Percent Control (100 uM Levosimendan). A digest of the protocol:
as §1

Another assay has as its target STK39 (Homo sapiens, UniProt Q9UEW8). The settings on record: competition binding, % of control; read-out: Percent Control (100 uM Levosimendan). A digest of the protocol: as §1
The next assay has as its target T6, IKK-epsilon (Homo sapiens, UniProt Q14164).
T6 construct: gene IKBKE
To be noted: competition binding, % of control; read-out: Percent Control (100 uM Levosimendan). A digest of the protocol: as §1

The target in a further assay is EGFR(L858R,T790M) (Homo sapiens, UniProt P00533, L858R/T790M). To be noted: competition binding, % of control; read-out: Percent Control (100 uM Levosimendan). A digest of the protocol:
as §1

A further assay has as its target PIK3CA(M1043I) (Homo sapiens, UniProt P42336, M1043I). The settings on record: competition binding, % of control; read-out: Percent Control (100 uM Levosimendan). A digest of the protocol: as §1
Another assay concerns the target ERN1 (Homo sapiens, UniProt O75460). To be noted: competition binding, % of control; read-out: Percent Control (100 uM Levosimendan). A digest of the protocol: as §1
The next assay concerns the target LATS1 (Homo sapiens, UniProt O95835). The settings on record: competition binding, % of control; read-out: Percent Control (100 uM Levosimendan). A digest of the protocol:
as §1

The next assay has as its target MET (Homo sapiens, UniProt P08581). The settings on record: competition binding, % of control; read-out: Percent Control (100 uM Levosimendan). A digest of the protocol:
as §1

In the next assay the target is CSNK1G3 (Homo sapiens, UniProt Q9Y6M4). To be noted: competition binding, % of control. A digest of the protocol: as §1
A further assay deals with PLK3 (Homo sapiens, UniProt Q9H4B4). To be noted: competition binding, % of control; read-out: Percent Control (100 uM Levosimendan). A digest of the protocol:
as §1

Where [2] appears, read: read-out: Percent Control (10 uM Levosimendan).
[3] abbreviates: read-out: Percent Control (100 uM Levosimendan).

T4 sequence (P23443 whole entry): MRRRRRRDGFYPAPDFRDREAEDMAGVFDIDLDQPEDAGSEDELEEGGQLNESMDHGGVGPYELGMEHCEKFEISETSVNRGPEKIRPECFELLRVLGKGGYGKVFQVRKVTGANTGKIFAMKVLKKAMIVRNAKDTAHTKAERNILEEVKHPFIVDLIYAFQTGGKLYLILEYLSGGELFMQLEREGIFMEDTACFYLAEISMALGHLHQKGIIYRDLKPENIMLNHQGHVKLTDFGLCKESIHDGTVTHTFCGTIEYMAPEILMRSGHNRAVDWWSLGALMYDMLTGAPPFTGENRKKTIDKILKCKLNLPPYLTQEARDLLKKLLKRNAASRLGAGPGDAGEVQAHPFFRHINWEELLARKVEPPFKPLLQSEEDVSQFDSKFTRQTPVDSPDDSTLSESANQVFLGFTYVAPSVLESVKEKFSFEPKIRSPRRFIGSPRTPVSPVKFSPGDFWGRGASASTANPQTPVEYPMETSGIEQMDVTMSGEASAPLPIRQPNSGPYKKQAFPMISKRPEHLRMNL
Chain of CSNK1G3 (Q9Y6M4 whole entry): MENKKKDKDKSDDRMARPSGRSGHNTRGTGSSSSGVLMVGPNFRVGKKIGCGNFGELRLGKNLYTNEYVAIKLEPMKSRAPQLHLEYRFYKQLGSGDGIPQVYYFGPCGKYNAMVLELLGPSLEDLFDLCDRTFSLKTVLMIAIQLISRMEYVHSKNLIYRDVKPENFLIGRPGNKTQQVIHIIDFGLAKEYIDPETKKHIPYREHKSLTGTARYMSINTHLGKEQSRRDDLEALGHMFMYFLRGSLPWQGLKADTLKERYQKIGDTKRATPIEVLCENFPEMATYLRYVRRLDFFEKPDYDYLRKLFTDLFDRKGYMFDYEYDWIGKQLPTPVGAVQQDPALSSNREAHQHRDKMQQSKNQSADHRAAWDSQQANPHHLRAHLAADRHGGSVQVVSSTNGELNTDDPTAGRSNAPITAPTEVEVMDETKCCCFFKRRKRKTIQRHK
Chain of MARK4 (Q96L34 whole entry): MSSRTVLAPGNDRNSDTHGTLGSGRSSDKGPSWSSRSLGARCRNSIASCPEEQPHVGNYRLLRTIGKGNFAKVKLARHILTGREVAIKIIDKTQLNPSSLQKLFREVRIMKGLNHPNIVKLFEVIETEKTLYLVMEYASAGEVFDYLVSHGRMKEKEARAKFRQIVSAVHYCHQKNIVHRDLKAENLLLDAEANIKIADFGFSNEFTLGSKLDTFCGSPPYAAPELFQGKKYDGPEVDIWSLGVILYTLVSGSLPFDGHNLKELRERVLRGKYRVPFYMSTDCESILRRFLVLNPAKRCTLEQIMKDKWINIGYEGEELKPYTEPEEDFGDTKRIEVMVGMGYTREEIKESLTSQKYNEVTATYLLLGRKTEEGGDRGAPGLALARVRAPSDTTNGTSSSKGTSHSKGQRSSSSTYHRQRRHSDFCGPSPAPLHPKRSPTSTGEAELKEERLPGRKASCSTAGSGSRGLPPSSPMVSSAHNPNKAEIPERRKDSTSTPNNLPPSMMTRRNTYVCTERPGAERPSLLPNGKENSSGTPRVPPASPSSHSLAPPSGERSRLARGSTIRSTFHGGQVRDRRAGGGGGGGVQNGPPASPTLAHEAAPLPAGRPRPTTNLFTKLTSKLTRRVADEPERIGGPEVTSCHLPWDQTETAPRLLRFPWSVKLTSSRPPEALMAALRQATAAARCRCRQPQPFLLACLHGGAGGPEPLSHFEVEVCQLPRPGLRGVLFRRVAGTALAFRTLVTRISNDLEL
Chain of LATS1 (O95835 whole entry): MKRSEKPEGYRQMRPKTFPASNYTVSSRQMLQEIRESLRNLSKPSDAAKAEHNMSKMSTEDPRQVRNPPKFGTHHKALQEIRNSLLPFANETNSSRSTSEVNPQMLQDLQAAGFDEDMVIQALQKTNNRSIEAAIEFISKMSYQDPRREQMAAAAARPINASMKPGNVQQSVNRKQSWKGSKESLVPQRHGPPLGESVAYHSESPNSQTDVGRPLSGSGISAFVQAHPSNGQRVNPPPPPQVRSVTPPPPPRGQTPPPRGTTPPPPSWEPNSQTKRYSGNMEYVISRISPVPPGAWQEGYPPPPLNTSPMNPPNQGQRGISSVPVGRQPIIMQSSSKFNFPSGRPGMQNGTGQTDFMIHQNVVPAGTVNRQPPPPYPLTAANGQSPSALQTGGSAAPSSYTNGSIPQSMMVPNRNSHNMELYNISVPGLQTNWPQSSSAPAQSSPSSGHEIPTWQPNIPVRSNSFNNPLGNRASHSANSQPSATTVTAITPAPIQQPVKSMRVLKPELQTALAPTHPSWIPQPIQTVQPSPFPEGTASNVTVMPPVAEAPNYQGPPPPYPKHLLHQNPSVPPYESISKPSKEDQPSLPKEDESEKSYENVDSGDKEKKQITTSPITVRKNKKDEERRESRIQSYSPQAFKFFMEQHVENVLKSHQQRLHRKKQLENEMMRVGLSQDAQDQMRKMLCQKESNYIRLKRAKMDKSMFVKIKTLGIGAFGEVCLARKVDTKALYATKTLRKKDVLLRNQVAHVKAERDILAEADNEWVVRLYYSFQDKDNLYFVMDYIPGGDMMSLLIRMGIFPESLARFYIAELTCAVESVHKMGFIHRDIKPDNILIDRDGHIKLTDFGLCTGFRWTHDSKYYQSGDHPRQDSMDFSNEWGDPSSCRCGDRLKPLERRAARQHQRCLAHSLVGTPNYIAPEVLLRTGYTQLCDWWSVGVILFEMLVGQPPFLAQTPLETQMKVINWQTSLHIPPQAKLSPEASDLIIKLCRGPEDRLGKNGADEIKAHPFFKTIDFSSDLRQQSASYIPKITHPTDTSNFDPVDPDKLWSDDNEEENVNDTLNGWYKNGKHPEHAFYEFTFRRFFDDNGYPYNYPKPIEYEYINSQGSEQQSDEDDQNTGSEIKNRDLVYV
Chain of MET (P08581 whole entry): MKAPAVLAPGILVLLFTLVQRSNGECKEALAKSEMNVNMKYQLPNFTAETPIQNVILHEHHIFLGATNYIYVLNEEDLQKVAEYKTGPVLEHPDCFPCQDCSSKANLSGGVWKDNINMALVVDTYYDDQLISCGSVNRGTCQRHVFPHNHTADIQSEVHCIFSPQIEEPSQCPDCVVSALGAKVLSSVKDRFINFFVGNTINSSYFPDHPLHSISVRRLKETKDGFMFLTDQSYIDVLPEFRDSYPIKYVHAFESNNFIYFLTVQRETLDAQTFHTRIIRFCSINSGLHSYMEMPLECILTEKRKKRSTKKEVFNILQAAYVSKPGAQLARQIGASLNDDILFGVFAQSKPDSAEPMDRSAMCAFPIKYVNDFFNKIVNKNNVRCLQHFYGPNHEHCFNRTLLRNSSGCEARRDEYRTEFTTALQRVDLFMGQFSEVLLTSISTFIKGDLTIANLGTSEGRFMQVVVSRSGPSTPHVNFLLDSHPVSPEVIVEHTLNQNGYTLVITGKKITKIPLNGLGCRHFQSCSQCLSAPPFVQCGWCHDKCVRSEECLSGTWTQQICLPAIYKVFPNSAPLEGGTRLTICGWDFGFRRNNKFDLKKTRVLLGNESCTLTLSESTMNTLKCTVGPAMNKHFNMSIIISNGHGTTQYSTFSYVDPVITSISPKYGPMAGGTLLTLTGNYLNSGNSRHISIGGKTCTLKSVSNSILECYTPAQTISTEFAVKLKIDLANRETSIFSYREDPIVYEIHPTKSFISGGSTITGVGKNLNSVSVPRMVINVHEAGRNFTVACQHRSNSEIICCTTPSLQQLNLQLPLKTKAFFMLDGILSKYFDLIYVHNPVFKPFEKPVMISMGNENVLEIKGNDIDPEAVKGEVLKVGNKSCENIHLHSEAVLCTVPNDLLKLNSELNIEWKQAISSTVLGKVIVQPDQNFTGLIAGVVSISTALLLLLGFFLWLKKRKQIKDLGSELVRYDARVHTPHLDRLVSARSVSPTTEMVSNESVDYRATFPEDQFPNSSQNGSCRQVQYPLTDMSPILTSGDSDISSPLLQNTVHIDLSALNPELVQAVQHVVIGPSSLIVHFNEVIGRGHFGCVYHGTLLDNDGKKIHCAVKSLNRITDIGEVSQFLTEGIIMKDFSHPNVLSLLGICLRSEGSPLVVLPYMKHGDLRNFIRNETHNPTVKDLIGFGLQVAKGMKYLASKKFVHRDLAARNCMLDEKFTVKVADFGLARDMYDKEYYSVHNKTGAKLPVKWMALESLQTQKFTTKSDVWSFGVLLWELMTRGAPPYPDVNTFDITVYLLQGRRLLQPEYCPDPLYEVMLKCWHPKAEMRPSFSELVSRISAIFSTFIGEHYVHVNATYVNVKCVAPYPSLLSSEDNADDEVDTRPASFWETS
T5 sequence (Q96D53 whole entry): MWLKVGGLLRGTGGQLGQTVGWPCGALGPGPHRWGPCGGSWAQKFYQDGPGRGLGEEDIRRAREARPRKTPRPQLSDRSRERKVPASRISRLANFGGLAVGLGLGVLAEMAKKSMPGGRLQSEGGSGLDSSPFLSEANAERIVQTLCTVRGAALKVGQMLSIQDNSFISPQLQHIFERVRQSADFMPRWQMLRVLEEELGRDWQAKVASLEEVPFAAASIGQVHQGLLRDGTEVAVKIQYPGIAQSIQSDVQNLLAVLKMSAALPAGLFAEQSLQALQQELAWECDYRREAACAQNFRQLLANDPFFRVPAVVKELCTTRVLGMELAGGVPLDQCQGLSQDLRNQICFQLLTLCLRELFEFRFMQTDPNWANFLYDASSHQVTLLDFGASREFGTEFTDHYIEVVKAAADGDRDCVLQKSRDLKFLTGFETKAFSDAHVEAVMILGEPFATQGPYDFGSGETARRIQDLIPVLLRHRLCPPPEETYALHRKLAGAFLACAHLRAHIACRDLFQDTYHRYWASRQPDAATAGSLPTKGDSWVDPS

For `C[C@@H]1CC(=O)NN=C1c1ccc(NN=C(C#N)C#N)cc1` [levosimendan], the remaining binding at 100 µM came to 100% on PCTK3; 80% at RET(V804M); 67% at PFTK1; 85% on SLK; 60% in assay [1]; 43% on S6K1 (setting [3]). Also, the remaining binding at 100 µM was determined as 85% on CHEK1; 87% on MARK4; 100% at ADCK4; 100% at PLK1; 100% at STK39; 93% at IKK-epsilon. Moreover, the remaining binding at 100 µM was 82% on EGFR(L858R,T790M); 100% at PIK3CA(M1043I); 79% at ERN1; 100% on LATS1; 55% on MET; 36% at CSNK1G3 (setting [3]). Moreover, on PLK3, the remaining binding at 100 µM was determined as 97%. The figures for the remaining binding at 10 µM on S6K1 (setting [2]) and on CSNK1G3 (setting [2]) were 84% and 83%, respectively.
